Among the test systems are CAKI-1; HCC 2998; NCI/ADR-RES; SK-OV-3; PC-3; K562; OVCAR-8; HL-60; COLO 205; HT-29; M14; TK-10; OVCAR-4; UACC-62; 786-0; A549; UACC-257; SF-268; DU-145.
Common to all, as to test: NCI-60 cell line screen, 48 h

Molecules are shown by their SMILES.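 Five compound concentrations were applied to cells in 96-well plates for 48 hours; endpoints were derived by simple linear interpolation of the resulting dose-response curve. GI50: concentration for 50% inhibition of growth.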 Activity calls are given as the source filed them. Cut-off read from the data, not from the text of the source: active = GI50 up to about 1.1 µM and inactive = higher.

As to `CCC(C)C1NC(=O)C(NC(=O)c2c3nc4c(C(=O)NC5C(=O)NC(C(C)CC)C(=O)N6CCCC6C(=O)N(C)CC(=O)N(C)C(C(C)C)C(=O)OC5C)ccc(C)c4oc-3c(C)c(=O)c2O)C(C)OC(=O)C(C(C)C)N(C)C(=O)CN(C)C(=O)C2CCCN2C1=O` (stereo not drawn), the GI50 with CAKI-1 is 10.3 µM (inactive); in the experiment with HCC 2998 it was 3.16 µM (inactive); in the experiment on NCI/ADR-RES, 21.9 µM (inactive); in the experiment on SK-OV-3, 11.5 µM (inactive); with PC-3, 3.99 µM (inactive); in the experiment with K562 it was 0.74 µM (active). Also, the GI50 with OVCAR-8 is 1.6 µM (inactive); in the experiment on HL-60, 2.81 µM (inactive); in the experiment on COLO 205, 1.35 µM (inactive); with HT-29, 1.06 µM (active); in the experiment with M14, 4.2 µM (inactive); in the experiment with TK-10 it was 10.2 µM (inactive). The GI50 is 14.3 µM (inactive) in the experiment on OVCAR-4; 1.14 µM (inactive) in the experiment with UACC-62; 3.37 µM (inactive) in the experiment with 786-0; 2.47 µM (inactive) in the experiment with A549; 3.3 µM (inactive) in the experiment with UACC-257; 3.77 µM (inactive) in the experiment on SF-268. Also, the GI50 in the experiment on DU-145 was 5.78 µM (inactive).
For `Cc1ccc2c(c1)C(=O)c1[nH]c3ccc(F)cc3c1CO2`, the GI50 was 27.5 µM (inactive) in the experiment on CAKI-1; > 100 µM (inactive) in the experiment with HCC 2998; 58.5 µM (inactive) with NCI/ADR-RES; 15.1 µM (inactive) in the experiment on SK-OV-3; 84.9 µM (inactive) in the experiment on PC-3; 29 µM (inactive) in the experiment with K562. The GI50 in the experiment on OVCAR-8 was 15.8 µM (inactive); in the experiment with HL-60, > 100 µM (inactive); with COLO 205, > 100 µM (inactive); in the experiment on HT-29 it was 23.4 µM (inactive); with M14 it was 18.8 µM (inactive); with TK-10, 31.8 µM (inactive). In addition, the GI50 in the experiment with OVCAR-4 is 15.3 µM (inactive); in the experiment on UACC-62, 24.4 µM (inactive); in the experiment with 786-0, 12.1 µM (inactive); with A549, 62.2 µM (inactive); with UACC-257, > 100 µM (inactive); with SF-268 it was 48 µM (inactive). Moreover, in the experiment with DU-145, the GI50 is > 100 µM (inactive).
Consider `C/C=C/C(CC(O)(C(F)(F)F)C(F)(F)F)=N/NC(N)=S`, for which the GI50 with CAKI-1, in the experiment with HCC 2998, with NCI/ADR-RES, in the experiment with SK-OV-3, with PC-3 and in the experiment with K562 was > 10 µM (inactive) throughout. Besides, the GI50 with OVCAR-8, in the experiment with HL-60, in the experiment on COLO 205, in the experiment with HT-29, with M14 and in the experiment on TK-10 was > 10 µM (inactive) each time. Also, the GI50 in the experiment with OVCAR-4, with UACC-62, with 786-0, in the experiment with A549, in the experiment with UACC-257 and in the experiment on SF-268 was > 10 µM (inactive) each time. Besides, the GI50 in the experiment on DU-145 was > 10 µM (inactive).
In the case of `O=C(CSCC(=O)N/N=C/c1cccc(O)c1)N/N=C/c1cccc(O)c1`, the GI50 in the experiment on CAKI-1, with HCC 2998, in the experiment with NCI/ADR-RES, in the experiment on SK-OV-3, in the experiment on PC-3 and in the experiment on K562 was > 100 µM (inactive) each time. Moreover, the GI50 with OVCAR-8, with HL-60, in the experiment on COLO 205, in the experiment with HT-29, in the experiment with M14 and in the experiment with TK-10 was > 100 µM (inactive) throughout. The GI50 in the experiment on OVCAR-4, with UACC-62, with 786-0, with A549, in the experiment on UACC-257 and in the experiment on SF-268 was > 100 µM (inactive) throughout. The GI50 in the experiment with DU-145 is > 100 µM (inactive).
In the case of `C=C(C)[C@@H](O)[C@H](O)C[C@H](C)C1CC[C@]2(C)C1=CC[C@@H]1[C@@]3(C)CC[C@@H](OC(C)=O)C(C)(C)[C@@H]3C[C@@H](OC3OC(COC(C)=O)C(O)C(O)C3O)[C@]12C` (stereo partly drawn), the GI50 is 3.52 µM (inactive) in the experiment on CAKI-1; 0.354 µM (active) in the experiment with HCC 2998; 15 µM (inactive) with NCI/ADR-RES; 3.48 µM (inactive) with SK-OV-3; 2.31 µM (inactive) with PC-3; 2.02 µM (inactive) with K562. In addition, the GI50 was 4.04 µM (inactive) in the experiment on OVCAR-8; 2.05 µM (inactive) in the experiment with HL-60; 1.93 µM (inactive) in the experiment with COLO 205; 2.02 µM (inactive) in the experiment with HT-29; 2.72 µM (inactive) in the experiment with M14; 3.39 µM (inactive) with TK-10. Moreover, the GI50 is 2.96 µM (inactive) with OVCAR-4; 1.9 µM (inactive) in the experiment with UACC-62; 3.44 µM (inactive) in the experiment with 786-0; 3.48 µM (inactive) with A549; 2.89 µM (inactive) in the experiment on UACC-257; 2.78 µM (inactive) with SF-268. The GI50 in the experiment on DU-145 was 3.4 µM (inactive).
In the case of `CCOc1cc2c(cc1O)CC[C@@H]1[C@@H]2CC[C@]2(C)C(OS(=O)OC3CC[C@@H]4[C@H]5CCc6cc(O)c(OCC)cc6[C@@H]5CC[C@@]34C)CC[C@@H]12` (stereo partly drawn), the GI50 in the experiment with CAKI-1 was 2.45 µM (inactive); in the experiment on HCC 2998 it was 16 µM (inactive); in the experiment on NCI/ADR-RES, 0.441 µM (active); with SK-OV-3, 1.16 µM (inactive); in the experiment with PC-3 it was 3.94 µM (inactive); in the experiment on K562, 0.316 µM (active). The GI50 in the experiment on OVCAR-8 is 1.38 µM (inactive); in the experiment on HL-60, 0.173 µM (active); in the experiment with COLO 205 it was 23.1 µM (inactive); with HT-29 it was 22.6 µM (inactive); in the experiment on M14, 0.592 µM (active); in the experiment with TK-10 it was 19.7 µM (inactive). Also, the GI50 in the experiment with OVCAR-4 was 9.2 µM (inactive); in the experiment with UACC-62, 1.19 µM (inactive); with 786-0, 0.583 µM (active); in the experiment with A549 it was 0.689 µM (active); in the experiment with UACC-257, 2.24 µM (inactive); in the experiment on SF-268, 2.44 µM (inactive). Further, the GI50 in the experiment on DU-145 was 1.62 µM (inactive).
With `Cc1cc2c(cc1Cl)SC(NNC(=O)c1ccncc1)=NS2(=O)=O`, the GI50 in the experiment on CAKI-1, in the experiment on HCC 2998, in the experiment with NCI/ADR-RES, in the experiment on SK-OV-3, with PC-3 and in the experiment on K562 was > 10 µM (inactive) throughout. Further, the GI50 in the experiment on OVCAR-8, with HL-60, with COLO 205, with HT-29, with M14 and with TK-10 was > 10 µM (inactive) each time. Besides, the GI50 with OVCAR-4, in the experiment on UACC-62, in the experiment on 786-0, with A549, in the experiment on UACC-257 and in the experiment on SF-268 was > 10 µM (inactive) each time. Besides, in the experiment on DU-145, the GI50 was > 10 µM (inactive).

These data come from ChEMBL document CHEMBL1201862, “PubChem BioAssay data set” (2004).
